Data taken from article PMC12491243, “Rational design of indoleamine 2,3-dioxygenase 1 (IDO1) inhibitors featuring 1,2,3-triazole derivatives with enhanced anti-inflammatory and analgesic efficacy” (Frontiers in Pharmacology, 2025).

Columns and labels:
Assay type in all cases: in vivo
KM mice = experiment: Acute toxicity test in KM mice; conditions: 500 mg/kg via gavage, 14 days
Protocol: We evaluated the safety of compound 14e using an acute toxicity test in KM mice. Male mice (8–9 weeks old) were randomly divided into a solvent control group and a 14e-treated group. The control group received an equivalent volume of solvent (5% DMSO +40% PEG300 + 1% Tween-80 + 54% saline) via gavage, while the treatment group received compound 14e solution (500 mg/kg). Beginning on day 1 after administration, body weight and general appearance were monitored for 14 days. At the end of the study, blood samples were collected to determine serum levels of Alanine Aminotransferase (ALT) and Aspartate Aminotransferase (AST). In addition, representative organs (heart, liver, spleen, lung, and kidneys) were excised, weighed, and used to calculate organ indices (organ index = organ weight/body weight × 100%).
FIGURE 7 Acute toxicity experiments of compound 14e were conducted in mice. (A) The body wight of mice were recorded for 14 days after treatment. (B) The acute toxicity experiments examined the effects of 14e on mouse organs. (C) Effect of acute toxicity experimental studies on blood biochemical indices ALT and AST in mice.

[1] = test system: CFA-induced inflammatory pain model; experiment: CFA-induced thermal hyperalgesia, paw withdrawal latency; conditions: CFA mice, 30 mg/kg i.p., ipsilateral side, 12 to 72 h post-CFA
Protocol: To evaluate the analgesic effects of Compound 14e in vivo, we established an inflammatory pain model using intraplantar injection of CFA. Compound 14e (30 mg/kg) was administered intraperitoneally at 6 h, with subsequent doses at 48 and 72 h after CFA injection. Behavioral assessments, including von Frey testing for mechanical allodynia and heat stimuli for thermal hyperalgesia, were conducted on the injected hind paw at baseline (BL), as well as at 6, 12, 18, 24, 48 and 72 h post-CFA injection. Additionally, flinching and guarding behaviors, indicators of spontaneous pain, were evaluated 72 h after CFA injection.
FIGURE 5 Compound 14e attenuates mechanical allodynia, thermal hyperalgesia and spontaneous pain of inflammatory pain in mice. (A,B) Evaluation of CFA-induced mechanical allodynia as assessed by withdrawal frequency to 0.07 g (A) and 0.4 g (B) von Frey filaments in mice repetitive treated with 10% DMSO or compound 14e. […]
The compound 14e were diluted with 10% DMSO, and were intraperitoneally injected with 30 mg/kg into the mice once a day for 3 days after CFA. The dosage of compound 14e was determined based on our preliminary experiments.
For the thermal nociceptive response, paw withdrawal latencies (PWLs) to thermal stimulus were measured by a heat flux radiometer (Ugo Basile S.R.L., Italy) ([Liu et al., 2023]). […]

[2] = test system: CFA-induced inflammatory pain model; experiment: CFA-induced mechanical allodynia, von Frey paw withdrawal frequency; conditions: CFA mice, 30 mg/kg i.p., 0.07 g and 0.4 g von Frey filaments, ipsilateral side, 12 to 72 h post-CFA
Protocol: To evaluate the analgesic effects of Compound 14e in vivo, we established an inflammatory pain model using intraplantar injection of CFA. Compound 14e (30 mg/kg) was administered intraperitoneally at 6 h, with subsequent doses at 48 and 72 h after CFA injection. Behavioral assessments, including von Frey testing for mechanical allodynia and heat stimuli for thermal hyperalgesia, were conducted on the injected hind paw at baseline (BL), as well as at 6, 12, 18, 24, 48 and 72 h post-CFA injection. Additionally, flinching and guarding behaviors, indicators of spontaneous pain, were evaluated 72 h after CFA injection. […] (A,B) Evaluation of CFA-induced mechanical allodynia as assessed by withdrawal frequency to 0.07 g (A) and 0.4 g (B) von Frey filaments in mice repetitive treated with 10% DMSO or compound 14e. […] The dosage of compound 14e was determined based on our preliminary experiments. Mechanical hypersensitivity was assessed by measuring paw withdrawal frequency (PWF) as described previously in our reports ([Ma et al., 2021]; [Pan et al., 2021]). The PWF in response to mechanical stimulus was determined using two calibrated von Frey filaments (0.07 and 0.4 g, North Coast Medical Inc., Gilroy, United States). […] The PWF was calculated based on the number of positive responses from the 10 applications ([number of paw withdrawals/10 trials] × 100 = % response frequency).

## O=C1COc2ccc(NC(=O)c3cccc(-c4cn(Cc5c(F)cccc5Cl)nn4)c3)cc2N1 [Compound 14e]
KM mice
  acute toxicity, overall: does not cause noticeable toxicity
  organ indices (heart, liver, spleen, lung, kidneys): remained stable
  serum ALT level: did not significantly affect
  serum AST level: did not significantly affect
KM mice; versus solvent control
  body weight: no significant changes
[1]
  thermal hyperalgesia, paw withdrawal latency (PWL): significantly alleviated
[2]
  mechanical allodynia, paw withdrawal frequency (PWF): significantly alleviated
